Measurements taken from patent US20060069132A1, “Azolecarboxamide herbicides” (priority 2004, published 2006).
Where two headings read alike, the source gives them in different places.

Key:
morningglory = experiment: Test B pre-/postemergence herbicide test; format: in vivo, Ipomoea coccinea; settings: Ipomoea, post-emergence, 336 h, Postemergence, scale 0 (no effect) to 100 (complete control)
How it was run: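 Herbicidal effect was judged by eye on a 0–100 scale after plants stood 13 to 15 days in the greenhouse following pre- or postemergence treatment with surfactant-containing formulations.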

yellow nutsedge = experiment: Test C pre-/postemergence herbicide test; format: in vivo, Cyperus esculentus
How it was run: (§1)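 Emerged plants at the 1- to 4-leaf stage (2–18 cm), or freshly planted seeds, received test chemicals in a non-phytotoxic solvent mixture with surfactant. Response was visually scored against controls after 12 to 14 days in the greenhouse, on a 0 (no effect) to 100 (complete control) scale.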

eastern black nightshade = experiment: Test C pre-/postemergence herbicide test; format: in vivo, Solanum ptycanthum
How it was run: as §1

redroot pigweed = experiment: Test A pre-/postemergence herbicide test; format: in vivo, Amaranthus retroflexus; settings: Amaranthus retroflexus, 240 h; for pest or weed control at 500 g/ha: 500 g ai/ha; for pest or weed control at 2000 g/ha: 2000 g ai/ha
How it was run: (§2)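 Both application timings were run together: directed soil spray over freshly planted seeds in sandy loam, and runoff spray onto 2–10 cm seedlings. Evaluation after ~10 days in greenhouse used a 0–100 visual scale versus untreated controls.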

kochia = experiment: Test C pre-/postemergence herbicide test; format: in vivo, Kochia scoparia
How it was run: as §1

lambsquarters = experiment: Test B pre-/postemergence herbicide test; format: in vivo, Chenopodium album; settings: Chenopodium album, 336 h; for pest or weed control at 500 g/ha: 500 g ai/ha
How it was run: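 Greenhouse pot assay with simultaneous preemergence (treated seed) and postemergence (2–18 cm seedlings) applications of surfactant-containing, non-phytotoxic solvent formulations. Response scored visually 13–15 days later on a 0–100 scale, 100 meaning complete control.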

soybean = experiment: Test C pre-/postemergence herbicide test; format: in vivo, Glycine max
How it was run: as §1

barnyardgrass = experiment: Test A pre-/postemergence herbicide test; format: in vivo, Echinochloa crus-galli; settings: Echinochloa crus-galli, 240 h; for pest or weed control at 500 g/ha: 500 g ai/ha; for pest or weed control at 2000 g/ha: 2000 g ai/ha
How it was run: as §2

cocklebur = experiment: Test C pre-/postemergence herbicide test; format: in vivo, Xanthium strumarium
How it was run: as §1

[1] = Preemergence, 500 g ai/ha, scale 0 to 100, 0 no effect, 100 complete control
[2] = post-emergence, Postemergence, 0 to 100 scale, 0 no effect, 100 complete control, read-out: Plant response rating, Pigweed
[3] = post-emergence, Postemergence, 0 to 100 scale, 0 no effect, 100 complete control, read-out: Plant response rating, Barnyardgrass

For `CCn1nc(C(C)(C)C)cc1C(=O)Nc1cc(C(=O)N(C)C)ccc1F` [Compound 6, N-[5-[(dimethylamino)carbonyl]-2-fluorophenyl]-3-(1,1-dimethylethyl)-1-ethyl-1H-pyrazole-5-carboxamide], the pest or weed control at 125 g/ha (morningglory; 125 g ai/ha, read-out: Morningglory plant response rating) was 0%, the pest or weed control at 500 g/ha (morningglory; 500 g ai/ha, visual rating after 13 to 15 days, read-out: Plant response rating, Morningglory) was 0% and the “Plant response rating (0 = no effect, 100 = complete control), Nutsedge, Yellow” value (yellow nutsedge; 62 g ai/ha, preemergence) was 50. For the same compound, the pest or weed control at 250 g/ha (yellow nutsedge; Cyperus, pre-emergence, 250 g ai/ha, scale 0 to 100 (0 no effect, 100 complete control), visual, 12 to 14 days, read-out: Plant response rating, Nutsedge, Yellow) was 80%, the “Nutsedge, Yellow plant response rating” value (yellow nutsedge; [1]) was 85 and the “Plant response rating (0 = no effect, 100 = complete control), Nightshade” value (eastern black nightshade; 62 g ai/ha, preemergence) was 100. For the same compound, the “Nightshade plant response rating” value (eastern black nightshade; [1]) was 100, the pest or weed control at 250 g/ha (eastern black nightshade; pre-emergence, 250 g ai/ha, scale 0 to 100 (0 no effect, 100 complete control), visual, 12 to 14 days, read-out: Plant response rating, Nightshade) was 100% and the pest or weed control at 500 g/ha (redroot pigweed; [2]) was 100%. For the same compound, the pest or weed control at 2000 g/ha (redroot pigweed; [2]) was 100%, the pest or weed control at 500 g/ha (redroot pigweed; pre-emergence, Preemergence, visual rating, 0 to 100 scale (0 no effect, 100 complete control), read-out: Pigweed plant response rating) was 100% and the pest or weed control at 2000 g/ha (redroot pigweed; pre-emergence, Preemergence, 0 to 100 scale, 0 no effect, 100 complete control, read-out: Pigweed plant response rating) was 100%. For the same compound, the “Plant response rating (0 = no effect, 100 = complete control), Kochia” value (kochia; 62 g ai/ha, preemergence) was 100, the pest or weed control at 125 g/ha (kochia; Bassia scoparia, pre-emergence, 125 g ai/ha, scale 0-100, read-out: Plant response rating, Kochia) was 100% and the pest or weed control at 250 g/ha (kochia; Bassia scoparia, pre-emergence, 250 g ai/ha, scale 0 to 100 (0 no effect, 100 complete control), visual, 12 to 14 days, read-out: Plant response rating, Kochia) was 100%. For the same compound, the “Kochia plant response rating” value (kochia; [1]) was 100, the pest or weed control at 125 g/ha (lambsquarters; post-emergence, Postemergence, 125 g ai/ha, scale 0 (no effect) to 100 (complete control), read-out: Lambsquarters plant response rating) was 30% and the pest or weed control at 500 g/ha (lambsquarters; post-emergence, Postemergence, visual rating after 13 to 15 days, scale 0 (no effect) to 100 (complete control), read-out: Plant response rating, Lambsquarters) was 100%. The pest or weed control at 500 g/ha (lambsquarters; pre-emergence, Preemergence, scale 0 to 100, read-out: Lambsquarters plant response rating) was 100%, the “Plant response rating (0 = no effect, 100 = complete control), Soybean” value (soybean; 62 g ai/ha, preemergence) was 70 and the plant injury at 250 g/ha (soybean; Glycine max, pre-emergence, 250 g ai/ha, scale 0 to 100 (0 no effect, 100 complete control), visual, 12 to 14 days, read-out: Plant response rating, Soybean) was 100%. For the same compound, the “Soybean plant response rating” value (soybean; [1]) was 100, the pest or weed control at 500 g/ha (barnyardgrass; [3]) was 80% and the pest or weed control at 2000 g/ha (barnyardgrass; [3]) was 90%. The pest or weed control at 500 g/ha (barnyardgrass; pre-emergence, Preemergence, visual rating, 0 to 100 scale (0 no effect, 100 complete control), read-out: Barnyardgrass plant response rating) was 100%, the pest or weed control at 2000 g/ha (barnyardgrass; pre-emergence, Preemergence, 0 to 100 scale, 0 no effect, 100 complete control, read-out: Barnyardgrass plant response rating) was 100% and the “Plant response rating (0 = no effect, 100 = complete control), Cocklebur” value (cocklebur; 62 g ai/ha, preemergence) was 60. It also gave a pest or weed control at 125 g/ha (cocklebur; Xanthium strumarium, pre-emergence, 312 h, 125 g ai/ha, scale 0-100, read-out: Plant response rating, Cocklebur) of 100%, a pest or weed control at 250 g/ha (cocklebur; Xanthium strumarium, pre-emergence, 312 h, 250 g ai/ha, scale 0 to 100 (0 no effect, 100 complete control), visual, 12 to 14 days, read-out: Plant response rating, Cocklebur) of 100% and a pest or weed control at 500 g/ha (cocklebur; Xanthium strumarium, pre-emergence, 312 h, Preemergence, 500 g ai/ha, scale 0 to 100, 0 no effect, 100 complete control, read-out: Cocklebur plant response rating) of 100%.
